# Patent publication US6916471B2, “Red blood cells loaded with S-nitrosothiol and uses therefor” (Duke University, priority 1995, dated 2005)
# Values joined by “and” are separate entries in the source; they are usually repeats but may differ in a detail not shown here. Equal values may be shown once.
# Experiments:
# Sprague-Dawley rat = assay: Mean arterial pressure after femoral vein bolus of cell-free Hb and SNO-Hbs; format: in vivo
# Text: Systemic administration of cell-free Hb results in hypertensive responses which have been attributed to NO scavenging by the heme (Vogel, W. M., et al., Am. J. Physiol. 251:H413-H420 (1986); Olsen, S. B., et al., Circulation 93:329-332 (1996)). To determine if SNO-Hb is free of this adverse affect, and to explore if in vitro mechanisms of NO release extend to the in vivo circumstance, we compared responses to Hb and SNO-Hb infused as a bolus into the femoral vein of anesthetized rats. […] Thus, the profiles of these compounds in vivo closely resemble those seen in vitro (FIG. 4A). […] These changes in mean blood pressure of ˜10% are on the order of those that differentiate normotension from hypertension in man, and in the therapeutic range of some antihypertensive regimens. […] The bioactivity of SNO-Hb in blood, where S—NO/heme stoichiometries approach 1:50,000, is a dramatic illustration of the resistence of this NO-related activity to Hb(Fe) inactivation.
# Administration of 2-200 nmol/kg Hb(FeII)O2 (as a bolus) into the femoral vein of a Sprague-Dawley rat is shown to increase mean arterial pressure in a dose-dependent manner. At 200 nmol/kg, mean arterial pressure increased by 25 mm Hg (20±3 mm Hg; n=4; P<0.05). Elevations in blood pressure reversed within 10-15 min. SNO-Hb(FeII)O2 infusions (over the same dose range) are shown to ameliorate Hb(FeII)O2-induced hypertension without causing overt changes in blood pressure. […] A fall in blood pressure was also seen with injection of erythrocytes containing SNO-Hb.
# Rats were anesthetized by intraperitoneal injection of pentobarbital and the femoral arteries and veins accessed by local cut down. The artery was then cannulated and the blood pressure monitored continuously using a Viggo Spectramed pressure transducer attached to a Gould recorder. An IBM PC (DATA Q Codas) was used for data acquisition.
# vascular ring = assay: Vessel ring bioassay of SNO-Hb preparations, with or without glutathione; conditions: for effect of added glutathione on the dose-response: glutathione 100 μM in bioassay chambers
# Text: Arterial red blood cells contain two physiologically important forms of hemoglobin: Hb(FeII)O2 and Hb(FeIII) (Antonini et al. (1971)). […] Such findings raise the possibility of functional consequences, perhaps influenced by the redox state of heme and its occupation by ligand.
# Details of the vessel ring bioassay have been published (Stamler, J. S., et al., Proc. Natl. Acad. Sci. USA 89:444-448 (1992)). SNO-Hb(FeII)O2 preparations were synthesized with 10-fold excess S-nitrosocysteine (CYSNO) over Hb(FeII)O2 protein (2% borate, 0.5 mM EDTA, ˜15 min incubation), after which desalting was performed across Sephadex G-25 columns. CYSNO was synthesized in 0.5 N HCl, 0.5 mM EDTA and then neutralized (1:1) in 1 M phosphate buffer containing 0.5 mM EDTA. […] The latter was synthesized by treatment of Hb(FeII)O2 with excess ferricyanide, followed by desalting across G-25 columns. SNO-Hb concentrations were verified spectroscopically and the S-nitrosothiol content was determined by the method of Saville (Stamler, J. S., et al., Proc. Nat. Acad. Sci. USA 89:444-448 (1992)). The S-NO/tetramer stoichiometry for both SNO-Hb preparations was ˜2. Oxidation of the heme was undetectable by uv-spectrophotometric methods.
# [1] = tested on: rabbit thoracic aorta rings; assay: Rabbit aortic ring bioassay: native and blocked Hb preparations, vessel tone and ACh (EDRF) relaxation; conditions: 1 μM
# Text: Hb-mediated inhibition of endothelium-dependent relaxations is commonly used as a marker of NO responses. Inasmuch as reactions with either metal or thiol centers of Hb should lead to attenuated NO/EDRF (endothelium-derived relaxing factor) responses, we attempted to elucidate the molecular basis of inhibition. Hb preparations in which β93 thiol groups had been blocked with N-ethylmaleimide (NEM) or the hemes blocked by cyanmet (FeIIICN)-derivitization were studied in an aortic ring bioassay, and their activities compared with that of native Hb. Both cyanmet-Hb and NEM-Hb caused increases in vessel tone and attenuated acetylcholine (EDRF)-mediated relaxations (FIG. 3B). […] To verify formation of an S-nitrosothiol in Hb, we established a bioassay in which 2 cm segments of thoracic aorta were interposed in Tygon tubing, through which 3 cc of Krebs solution containing Hb (4 μM) and ACh (2 μM) were circulated by roller pump (1.5 cc/min×5 min).
# The effects of native Hb on EDRF responses were compared with Hb preparations in which the thiol or heme centers had been blocked by alkylation or cyanmet derivitization, respectively. All preparations of Hb elicited contractions; however, those of native Hb (in which both SH and metal centers are free for interaction) were most pronounced. […] Relaxations were inhibited to lesser degrees by cyanmet Hb (CN-Hb)(in which hemes were blocked from reaction) and NEM-Hb (in which thiol groups were alkylated by N-ethylmaleimide). […] Direct measurement of SNO-Hb, formed from EDRF under similar conditions, is described in Example 8.
# Descending rabbit thoracic aorta were cut into 3 mm rings and mounted on stirrups attached to force transducers (model FT03, Grass Instruments, Quincy, Mass.) for measurement of isometric tone. The details of this bioassay system have been previously described (Stamler, J. S., et al., Proc. Natl. Acad. Sci. USA 89:444-448 (1992)). Cyanmet Hb was prepared from human HbA according to published protocols (Kilbourn, R. G. et al. Biochem. Biophy. Res. Comm. 199:155-162, (1994)). Alkylation of HbA with N-ethylmaleimide was followed by desalting across G-25 Sephadex to remove excess NEM. Removal of unmodified Hbcysβ93 was achieved by passage through Hg-containing affinity columns. The alkylation of free SH groups was verified using 5,5′-dithio-bis[2-nitrobenzoic acid].
# rat red blood cells = assay: S-nitrosylation of intraerythrocytic Hb (loading of red blood cells); format: cell-based; conditions: for formation of intraerythrocytic SNO-Hb: oxygenated rat red blood cells
# Method: Given that Hb is largely contained within red blood cells, potential mechanisms by which S-nitrosylation of intracellular protein might occur were explored. […] Rapid oxidation of Hb was not observed under these conditions. […] Thus, erythrocyte access of RSNOs is thiol group specific.
# Incubation of rat erythrocytes with S-nitrosocysteine (equimolar to heme (5 mM); phosphate buffer pH 7.4, 25° C.) leads to rapid formation of intracellular SNO-Hb(FeII)O2. […] By 60 min, 3 of the 4 available SH groups of Hb are S-nitrosylated (note that rat Hb contains 4 reactive SH groups). […] Spectrum A is that of SNO-Hb isolated from erythrocytes following G-25 chromatography. Treatment of A with dithionite results in reduction of the S—NO moiety, liberating free NO which is autocaptured by deoxy Hb, forming Hb(FeII)NO (note that dithionite simultaneously deoxygenates Hb) (spectrum C). […] The spectrum of Hb(FeII)NO containing 4 NO's per tetramer is shown for comparison (inset, spectrum B).
# At shown intervals, red blood cells were pelleted rapidly by centrifugation, washed three times, lysed in deionized water at 4° C., and the cytosolic fraction subjected to rapid desalting across G-25 columns. Intracellular SNO-Hb was measured by the method of Saville (Gaston, B., et al., (1992); Stamler, J. S., et al., Proc. Natl. Acad. Sci. USA, 89:444-448 (1992)), and confirmed spectroscopically (inset of FIG. 3A) as described above.
# [2] = tested on: rabbit thoracic aorta rings; assay: Oxygen-dependent rabbit aortic ring bioassay of Hb, SNO-Hb, GSNO and SNO-RBCs
# Sprague-Dawley rats = assay: Local cerebral blood flow by H2-sensitive microelectrodes; format: in vivo, rat; conditions: 1 μmol/kg infused over 3 minutes
# Method: Adult male Sprague-Dawley rats (290-350 g) were anesthetized with sodium pentobarbital (50 mg/kg IP), intubated and ventilated with a small animal respirator (Edco Scientific Inc., Chapel Hill, N.C.) at a rate and tidal volume to maintain normal values of PaCO2 (35-45 mm Hg; PaCO2=systemic arterial blood carbon dioxide tension). The femoral vein and artery were cannulated for infusion of drugs and for continuous monitoring of systemic blood pressure, respectively. Aliquots of arterial blood (200 μl) were drawn periodically to measure blood gas tensions and pH (Instrumentation Laboratory Co., model 1304 blood gas/pH analyzer). The blood was replaced intravenously with three volumes of normal saline. The inspired O2 concentration was varied using premixed gases balanced with nitrogen. The tissue PO2 was measured continuously with polarographic platinum microelectrodes (50 μm O.D. coated with hydrophobic gas permeable Nafion) implanted stereotaxically in both the right and left hippocampus (AP−3.4 mm, ML+2.2 mm), caudate putamen nucleus and substantia nigra (see coordinates below) (Young, W., Stroke, 11:552-564 (1980); Heiss, W. D. and Traupett, H., Stroke, 12:161-167 (1981); Dewhirst, M. W. et al., Cancer Res., 54:3333-3336 (1994); Kerger, H. et al., Am. J. Physiol., 268:H802-H810 (1995)). The PO2 electrodes were polarized to −0.65V against a distant Ag/AgCl reference located on the tail and the current flow was measured using a low-impedance nA-meter. Regional arterial PO2 was adjusted by changing the inspired O2 concentration and atmospheric pressure.
# Polarographic hydrogen (H2)-sensitive microelectrodes were implanted stereotaxically in the substantia nigra (AP −5.3 mm, ML −2.4 mm to the bregma, depth 3.2 mm), caudate putamen nucleus (CPN) (AP +0.8 mm, ML −2.5 mm, depth 5.2 mm) and parietal cortex, for measurement of regional blood flow (Young, W., Stroke, 11:552-564 (1980); Heiss, W. D. and Traupett, H., Stroke, 12:161-167 (1981)). The microelectrodes were made from platinum wire and insulated with epoxy, with the exception of the tip (1 mm) which was coated with Nafion. For placement, the electrodes were mounted on a micromanipulator and the rat's head was immobilized in a Kopf stereotaxic frame. H2-sensitive electrodes were polarized to +400 mV against a distant reference electrode on the tail, and the polarographic current was measured using a low-impedance nA meter during and after the inhalation of hydrogen gas (2.5%) for 1 min. Both the hydrogen clearance curves and voltage for oxygen measurements were made using PC WINDAQ (software, DI-200 AC, Dataq Instruments, Inc., Akron, Ohio). Cerebral blood flow was calculated using the initial slope method (Young, W., Stroke, 11:552-564 (1980); Heiss, W. D. and Traupett, H., Stroke, 12:161-167 (1981)). Regional blood flow responses were monitored for 30 min. prior to and 30 min. following drug administration; hemoglobins were given at time 0.
# The cerebrovascular effects of SNO-Hb were measured in adult male Sprague-Dawley rats using O2 and H2 (blood flow)-sensitive microelectrodes that were placed stereotaxically in several regions of the brain as for Example 11.
# Comparative effects of SNO-Hb (●) and Hb (▪) (1 μmol/kg infused over 3 minutes) on local blood flow in substantia nigra (SN), caudate putamen nucleus, and parietal cortex are shown for three different conditions. […] Baseline blood flow was decreased by ˜10% under 100% O2+3 ATA as compared to 100% O2. n=7 for all data points. Values of tissue/microvascular PO2 ranged from 19-37 mm Hg in 21% O2; from 68-138 mm Hg in 100% O2; and from 365-538 mm Hg in 100%+3 ATA (Duke University Medical Center Hyperbaric Chambers).
compound,measurement,setting,value
"Hb(FeII)O2: oxyhemoglobin, cell-free [reference compound]",increase in mean arterial pressure,"Sprague-Dawley rat; 200 nmol/kg bolus, femoral vein, anesthetized rat",20±3 mm Hg and 25 mm Hg
same,time for elevations in blood pressure to reverse,Sprague-Dawley rat; 2-200 nmol/kg bolus,10 to 15 min
same,effect of added glutathione on the dose-response,vascular ring,did not significantly influence the response
NEM-Hb: Hb in which thiol groups were alkylated by N-ethylmaleimide,% ACh RELAXATION,[1],60.5 ± 3.9 (n = 7) %
same,% INCREASE IN TENSION,[1],29.4 ± 1.3 (n = 7) %
"CC(=O)OCC[N+](C)(C)C [ACh, acetylcholine]",% ACh RELAXATION,[1],98.3 ± 0.6 (n = 10) %
N[C@@H](CSN=O)C(=O)NCC(=O)O [S-nitrosocysteinylglycine],formation of intraerythrocytic SNO-Hb,rat red blood cells,Intraerythrocytic SNO-Hb also formed
"CN-Hb: cyanmet Hb, in which hemes were blocked from reaction",% ACh RELAXATION,[1],80.7 ± 1.0 † (n = 4) %
same,% INCREASE IN TENSION,[1],12.9 ± 3.0 (n = 6) %
"[N]=O [NO, nitric oxide, reference compound]",formation of intraerythrocytic SNO-Hb,rat red blood cells,primarily in metHb formation
Hb: native cell-free human hemoglobin purified from red cells [reference compound],effect on tone of rings contracted with phenylephrine under hypoxia,"[2]; 1 μM, 6-7 torr",progressive increases in vessel tone
same,local cerebral blood flow,Sprague-Dawley rats; 21% O2,decreased local blood flow
same,local cerebral blood flow,Sprague-Dawley rats; 100% O2,decrease in flow was preserved
same,local cerebral blood flow,Sprague-Dawley rats; 100% O2+3 ATA,tended to decrease cerebral flow to similar extents
same,% ACh RELAXATION,[1],31.9 ± 6.9 (n = 7) %
same,% INCREASE IN TENSION,[1],40.8 ± 2.3 (n = 7) %
SNO-Hb(FeII)O2: S-nitroso-oxyhemoglobin,blood pressure response,"Sprague-Dawley rat; bolus, femoral vein, anesthetized rat",did not exhibit hypertensive effects
same,effect of added glutathione on the dose-response,vascular ring,potentiates the dose-response
same,activity in vascular ring bioassay,vascular ring; no glutathione,modest NO-like activity
deoxyHb: deoxygenated hemoglobin [reference compound],effect on vessel tone in T-structure,[2]; <1% O2 (˜6 torr),powerful contractile agent
N[C@@H](CSN=O)C(=O)O [S-nitrosocysteine],SH groups of Hb S-nitrosylated,"rat red blood cells; of the 4 available SH groups of rat Hb, by 60 min, equimolar to heme (5 mM), pH 7.4, 25° C.",3
same,formation of intraerythrocytic SNO-Hb,rat red blood cells,very rapid formation of intracellular SNO-Hb(FeII)O2
N[C@@H](CCSN=O)C(=O)O [S-nitrosohomocysteine],formation of intraerythrocytic SNO-Hb,rat red blood cells,Intraerythrocytic SNO-Hb also formed
